Experimental data: patent publication US20250333405A1, “ANTAGONISTS OF GPR39 PROTEIN” (VASOCARDEA, INC., priority 2024, published 2025)
Counter-ions that a name gives are not always drawn.

Target: T1, human GPR39 receptor (Homo sapiens, UniProt O43194)
T1 construct: PC3 Cells, Expressing the Endogenous Human GPR39 Receptor; endogenous in cells; host or cells: PC3 (human prostate adenocarcinoma) cells
T1 sequence (O43194 1-453): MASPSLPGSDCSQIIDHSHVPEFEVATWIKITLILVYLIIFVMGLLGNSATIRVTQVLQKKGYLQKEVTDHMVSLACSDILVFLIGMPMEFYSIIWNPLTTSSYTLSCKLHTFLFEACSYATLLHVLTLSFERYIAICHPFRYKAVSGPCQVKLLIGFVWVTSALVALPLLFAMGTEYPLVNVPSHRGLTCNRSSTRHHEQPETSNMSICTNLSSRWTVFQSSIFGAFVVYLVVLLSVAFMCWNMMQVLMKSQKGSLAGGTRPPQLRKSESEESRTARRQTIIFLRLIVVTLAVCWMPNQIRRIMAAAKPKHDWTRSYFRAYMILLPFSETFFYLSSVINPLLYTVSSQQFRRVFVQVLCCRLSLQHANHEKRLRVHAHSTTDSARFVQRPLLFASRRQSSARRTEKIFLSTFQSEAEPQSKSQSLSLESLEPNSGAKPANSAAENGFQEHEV
Assay: Intracellular calcium response (FLIPR, Calcium-6) in PC3 cells, antagonism of agonist C3 (TC-G 1008) at EC90
Type: cell-based
Conditions: functional pKi (-Log10Ki) by modified Cheng-Prusoff from IC50; PC3 cells endogenously expressing human GPR39; 30 μM ZnCl2; agonist C3 (TC-G 1008) at EC90 1.5 μM; read-out: fpKi activity
Description: Measurement of Intracellular Calcium Response in PC3 Cells, Expressing the Endogenous Human GPR39 Receptor
Human prostate adenocarcinoma (PC3) cells endogenously expressing human GPR39 receptor were seeded into black walls clear-base 384-well plates at a density of 7,500 cells per well in DMEM (Low Glucose) supplemented with 10% heat-inactivated foetal bovine serum and 1% of Pen/Strep and grown overnight at 37° C., 5% CO2. After washing with assay buffer (20 mM HEPES, 137 mM NaCl, 5.4 mM KCl, 10 mM glucose, 0.8 mM MgSO4, 1.3 mM CaCl2), 0.3 mM Na2HPO4, 0.4 mM KH2PO4 4.2 mM NaHCO3, pH 7.4), cells were incubated with Calcium-6 probe (Molecular Devices) at 37° C. for 2 h and then equilibrated at RT for 30 minutes on metal block. The fluorescence was measured in real time by Fluorometric Imaging Plate Reader (FLIPR TETRA, Molecular Devices) (excitation wavelength at 470-495 nm, emission wavelength at 515-575 nm). Compounds of invention were serially diluted in neat DMSO at 1000 fold concentrations and plated into 384-well plates and then 200-fold diluted in assay buffer containing 150 μM ZnCl2 (30 μM final concentration) and 1.1% DMSO (0.32% final concentration). A dual addition FLIPR protocol was used which included a first addition of compounds 200-fold diluted in Assay Buffer containing 150 μM ZnCl2 and 1.1% DMSO and then after 10 minutes a second addition of a submaximal concentration of the hGPR39 receptor agonist, C3 (Tocris, TC-G 1008) at EC90 (concentration producing 90% of the maximal response) value of 1.5 μM. Fluorescence was monitored throughout the run assay. The peak of Ca2+ stimulation (baseline subtracted) was expressed as percentage of the maximal inhibition of the EC90 C3 response and was plotted versus the concentration of test compound. Curve fitting and IC50 estimations are carried out using a four-parameter logistic model using XLfit Software. […] An fpKi less than 5.2 is reported as “+/−”. An fpKi ranging from 5.2 to 5.9 is reported as “+”. An fpKi from 6.0 to 6.5 is reported as “++”. An fpKi from 6.6 to 7.2 is reported as “+++”. An fpKi equal to or greater than 7.3 is reported as “++++”.

SMILES | Ki [µM]
Cc1nnc(-c2ccc(C(=O)N3CCC(C(F)(F)F)CC3)c(-c3ccn(C(C)(C)C)n3)c2)[nH]1 [Example 53, [2-(1-tert-butylpyrazol-3-yl)-4-(5-methyl-4H-1,2,4-triazol-3-yl)phenyl]-[4-(trifluoromethyl)-1-piperidyl]methanone] | ≤ 0.0501
Cc1nnc(-c2ccc(C(=O)N3CCC(C(F)(F)F)CC3)c(-c3nc(C(F)(F)F)cs3)c2)[nH]1 [Example 72, [4-(5-methyl-4H-1,2,4-triazol-3-yl)-2-[4-(trifluoromethyl)-1,3-thiazol-2-yl]phenyl]-[4-(trifluoromethyl)piperidin-1-yl]methanone] | ≤ 0.0501
CC(C)c1cc(-c2ccc(C(=O)N3CCC(F)(F)CC3)c(-c3ccn(C(C)C)n3)c2)[nH]n1 [Example 85, (4,4-difluoro-1-piperidyl)-[2-(1-isopropylpyrazol-3-yl)-4-(5-isopropyl-1H-pyrazol-3-yl)phenyl]methanone] | 1.26 to 6.31
O=C(Nc1ccc(C(=O)N2CCCC2c2ccccc2)c(N2CCCC2)c1)C1CC1 (centres unmarked) [Example 1, N-[4-(2-phenylpyrrolidine-1-carbonyl)-3-pyrrolidin-1-ylphenyl]cyclopropanecarboxamide] | 1.26 to 6.31
Cc1nnc(-c2ccc(C(=O)N3CCC(F)(F)CC3)c(-c3ccn(C(C)C4CC4)n3)c2)[nH]1 (single isomer, unassigned) [Example 57a, [2-[1-(1R or 1S-cyclopropylethyl)pyrazol-3-yl]-4-(5-methyl-4H-1,2,4-triazol-3-yl)phenyl]-(4,4-difluoro-1-piperidyl)methanone] | ≤ 0.0501
Cc1ccc(C2CN(C)CCN2C(=O)c2ccc(NC(=O)C3CC3)cc2N2CCCC2)cc1 (racemic) [Example 109, N-[4-[4-methyl-2-(4-methylphenyl)piperazine-1-carbonyl]-3-pyrrolidin-1-ylphenyl]cyclopropanecarboxamide] | 0.0631 to 0.251
CC1CN(C(=O)c2ccc(NC(=O)C3CC3)cc2N2CCCC2)CC(C)S1(=O)=O (centres unmarked) [Example 5, N-[4-(2,6-dimethyl-1,1-dioxo-1,4-thiazinane-4-carbonyl)-3-pyrrolidin-1-ylphenyl]cyclopropanecarboxamide] | > 6.31
CC(=O)Nc1ccc(-c2nccc(N3CCCC3)n2)c(N2CCCC2)c1 [Example 101, N-[3-pyrrolidin-1-yl-4-(4-pyrrolidin-1-ylpyrimidin-2-yl)phenyl]acetamide] | > 6.31
CN1CCN(C(=O)c2ccc(NC(=O)C3CC3)cc2N2CCCC2=O)C(c2ccccc2)C1 (centres unmarked) [Example 124, N-[4-(4-methyl-2-phenylpiperazine-1-carbonyl)-3-(2-oxopyrrolidin-1-yl)phenyl]cyclopropanecarboxamide] | > 6.31
Cc1nnc(-c2ccc(C(=O)N3CCC(F)(F)CC3)c(-c3cccc(C4CC4)n3)c2)[nH]1 [Example 78, [2-(6-cyclopropyl-2-pyridyl)-4-(5-methyl-4H-1,2,4-triazol-3-yl)phenyl]-(4,4-difluoro-1-piperidyl)methanone] | ≤ 0.0501
C[C@@H]1CN(C(=O)c2ccc(NC(=O)C3CC3)cc2N2CCCC2)C[C@@H](C)O1 (racemic) [Example 4, N-[4-[(trans)-2,6-dimethylmorpholine-4-carbonyl]-3-pyrrolidin-1-ylphenyl]cyclopropanecarboxamide] | 1.26 to 6.31
Cc1cc(Cl)cc(C2CN(C)CCN2C(=O)c2ccc(NC(=O)C3CC3)cc2N2CCCC2)c1 (single isomer, unassigned) [Example 110b, N-[4-[2S or 2R-(3-chloro-5-methylphenyl)-4-methylpiperazine-1-carbonyl]-3-pyrrolidin-1-ylphenyl]cyclopropanecarboxamide hydrochloride] | 1.26 to 6.31
N#Cc1ccn(-c2cc(NC(=O)C3CC3)ccc2C(=O)N2CCS(=O)(=O)CC2)n1 [Example 117, N-[3-(3-cyanopyrazol-1-yl)-4-(1,1-dioxo-1,4-thiazinane-4-carbonyl)phenyl]cyclopropanecarboxamide] | 1.26 to 6.31
Cc1nnc(-c2ccc(C(=O)N3CCC(F)(F)CC3)c(-c3ccn(C4COC4)n3)c2)[nH]1 [Example 60, (4,4-difluoro-1-piperidyl)-[4-(5-methyl-4H-1,2,4-triazol-3-yl)-2-[1-(oxetan-3-yl)pyrazol-3-yl]phenyl]methanone] | ≤ 0.0501
Cc1nnc(-c2ccc(C(=O)N3CCC(F)(F)CC3)c(-c3ccn(C(C)C)n3)c2)[nH]1 [Example 51, (4,4-difluoropiperidin-1-yl)-[4-(5-methyl-4H-1,2,4-triazol-3-yl)-2-(1-propan-2-ylpyrazol-3-yl)phenyl]methanone] | ≤ 0.0501
Cc1nnc(-c2ccc(C(=O)N3CCC(F)(F)CC3)c(-c3ccn(C(C)(C)C)n3)c2)[nH]1 [Example 54, [2-(1-tert-butylpyrazol-3-yl)-4-(5-methyl-4H-1,2,4-triazol-3-yl)phenyl]-(4,4-difluoropiperidin-1-yl)methanone] | ≤ 0.0501
CN1CCN(C(=O)c2ccc(NC(=O)C3CC3)cc2C2=CCCC2)C(c2ccccc2)C1 (centres unmarked) [Example 89, N-[3-(cyclopenten-1-yl)-4-(4-methyl-2-phenylpiperazine-1-carbonyl)phenyl]cyclopropanecarboxamide] | 0.0631 to 0.251
Cc1ccc(-c2cc(NC(=O)C3CC3)ccc2C(=O)N2CCS(=O)(=O)CC2)s1 [Example 25, N-[4-(1,1-dioxo-1,4-thiazinane-4-carbonyl)-3-(5-methylthiophen-2-yl)phenyl]cyclopropanecarboxamide] | 0.316 to 1
Cc1cc(C(F)(F)F)nc(-c2cc(-c3nnc(C)[nH]3)ccc2C(=O)N2CCC(C(F)(F)F)CC2)n1 [Example 68, [4-(5-methyl-4H-1,2,4-triazol-3-yl)-2-[4-methyl-6-(trifluoromethyl)pyrimidin-2-yl]phenyl]-[4-(trifluoromethyl)-1-piperidyl]methanone] | ≤ 0.0501
O=C(Nc1cc(N2CCCC2)c(C(=O)N2CCS(=O)(=O)CC2)cc1Cl)C1CC1 [Example 96, N-[2-chloro-4-(1,1-dioxo-1,4-thiazinane-4-carbonyl)-5-pyrrolidin-1-ylphenyl]cyclopropanecarboxamide] | 1.26 to 6.31
Cc1c(NC(=O)C2CC2)ccc(C(=O)N2CCS(=O)(=O)CC2)c1N1CCCC1 [Example 94, N-[4-(1,1-dioxo-1,4-thiazinane-4-carbonyl)-2-methyl-3-pyrrolidin-1-ylphenyl]cyclopropanecarboxamide] | 0.316 to 1
Cc1nnc(-c2ccc(C(=O)N3CCC(F)(F)CC3)c(-c3nc(C(F)(F)F)cs3)c2)[nH]1 [Example 76, (4,4-difluoro-1-piperidyl)-[4-(5-methyl-4H-1,2,4-triazol-3-yl)-2-[4-(trifluoromethyl)thiazol-2-yl]phenyl]methanone] | ≤ 0.0501
O=C(Nc1ccc(-c2nnc(N3CCCC3)o2)c(N2CCCC2)c1)C1CC1 [Example 99, N-[3-pyrrolidin-1-yl-4-(5-pyrrolidin-1-yl-1,3,4-oxadiazol-2-yl)phenyl]cyclopropanecarboxamide] | > 6.31
CCn1ccc(-c2cc(-c3nnc(C)[nH]3)ccc2C(=O)N2CCC(F)(F)CC2)n1 [Example 59, (4,4-difluoro-1-piperidyl)-[2-(1-ethylpyrazol-3-yl)-4-(5-methyl-4H-1,2,4-triazol-3-yl)phenyl]methanone] | ≤ 0.0501
O=C(Nc1ccc(C(=O)N2CCS(=O)(=O)CC2)c(C2CCCC2)c1)C1CC1 [Example 90, N-[3-cyclopentyl-4-(1,1-dioxo-1,4-thiazinane-4-carbonyl)phenyl]cyclopropanecarboxamide] | > 6.31
Cc1cc(Nc2ccc(C(=O)N3CCN(C)CC3c3ccccc3)c(N3CCCC3)c2)on1 (racemic) [Example 18, [4-[(3-methyl-1,2-oxazol-5-yl)amino]-2-pyrrolidin-1-ylphenyl]-(4-methyl-2-phenylpiperazin-1-yl)methanone] | 1.26 to 6.31
